In publication PMC12688159, “Chemosensory protein 3 is a brain host factor for the induction of enhanced-locomotory activity in the BmNPV-silkworm infection model” (PLOS Pathogens, 2025):

Legend:
[1] = biological target: T1, BmCSP3 (chemosensory protein 3) (Bombyx mori, UniProt Q3LBA2); experiment: biochemical; parameters: 1-NPN fluorescence displacement from purified BmCSP3; EC50int interpolated, Ki by Cheng-Prusoff; details: EC50int, 1-NPN displacement; read-out: EC50,int ± SE (μΜ)
T1 construct: residues 19–109 of UniProt entry Q3LBA2
T1 sequence (Q3LBA2 19-127): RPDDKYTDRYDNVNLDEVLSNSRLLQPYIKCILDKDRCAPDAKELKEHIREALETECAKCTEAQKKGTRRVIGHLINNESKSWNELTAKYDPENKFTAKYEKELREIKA
Procedure: (§1) The dissociation constant (Kd) of the fluorescent probe 1-NPN (N-Phenyl-1-naphthylamine) was determined in solutions containing 4 μΜ BmCSP3 in 20 mM Tris-HCl pH 8.0, 100 mM NaCl by addition of 0 το 20 μM 1-NPN. To determine the ligands’ Ki, 1-NPN displacement was measured in solutions containing 4 μΜ BmCSP3, 10 μΜ 1-NPN and ligand concentrations ranged from 0-20 μΜ and 0–32 μΜ, for the tested neurotranmiters and lipids, respectively. Control samples containing the ligand and 1-NPN, but lacking protein, were run in parallel to determine background fluorescence, which was subtracted from the experimental data. All experiments were performed in technical triplicate. Given that the bottom values never reaches zero and varied among the different experiments, the ligand concentration that reduced the initial fluorescence by 50% (EC50int) was estimated from the displacement binding curves by interpolation, using the built-in interpolation function of GraphPad Prism.

[2] = biological target: T1, BmCSP3 (chemosensory protein 3); experiment: biochemical; parameters: 1-NPN fluorescence displacement binding with purified BmCSP3; Ki by Cheng-Prusoff from interpolated EC50; details: 4 uM BmCSP3, 10 uM 1-NPN, pH 8.0, 25 °C; read-out: Ki (μΜ)
Procedure: as §1, with “triplicate. The determination of dissociation constants and the visualization of the binding curves was carried out using the non-linear regression analysis program GraphPad Prism 8 (www.graphpad.com). The Kd of 1-NPN for BmCSP3 was determined to be 5.8 μΜ by fitting the fluorescence data to a single-binding site saturation model described by the equation” for “triplicate.”, “Prism. Subsequently, the ligand’s dissociation constant (Ki) was determined using the Cheng-Prusoff equation: […]” for “Prism.”

[3] = biological target: T1, BmCSP3 (chemosensory protein 3); experiment: direct fluorescence titration of the probe with purified protein, single-site saturation fit; assay type: binding
[4] = biological target: T1, BmCSP3 (chemosensory protein 3); experiment: 1-NPN fluorescence displacement binding assay with purified protein

Row | SMILES | EC50 [1] [µM] | Ki [2] [µM] | Ki ([4]; read-out: Ki) [µM] | Kd [3] [µM] | Ki [4] [µM]
1 | c1ccc(Nc2cccc3ccccc23)cc1 [1-NPN, N-Phenyl-1-naphthylamine] |  |  |  | 5.8 | 
2 | O=C(O)Cc1cc(O)ccc1O [Homogentisic acid] | 6.76 ± 1.58 |  |  |  | 2.5
3 | NCCCC[C@H](N)C(=O)O [L-lysine] | > 20 | > 14 |  |  | 
4 | NCCc1c[nH]c2ccc(O)cc12 [Serotonin] | 4.81 ± 1.17 |  |  |  | 1.8
5 | NCCc1c[nH]c2ccccc12 [Tryptamine] | 0.03 ± 0.01 |  |  |  | 0.011

Continued, in another order:

Row | EC50 [1] [µM] | Ki [2] [µM] | Ki ([4]; read-out: Ki) [µM] | SMILES | Kd [3] [µM] | Ki [4] [µM]
6 | > 20 | > 20 |  | NCCCC(N)C(=O)O (racemic) [DL-Ornithine] |  | 
7 | 0.79 ± 0.1 |  | 0.29 | CC/C=C\C/C=C\C=C\[C@@H](O)CCCCCCCC(=O)O [9(S)-HOTrE, (10E,12Z,15Z)-9-hydroxyoctadeca-10,12,15-trienoic acid] |  | 
8 | > 20 | > 20 |  | NCC(=O)O [Glycine] |  | 
9 | 7.78 ± 1.48 |  | 2.8 | NC(=O)CC[C@H](N)C(=O)O [L-glutamine] |  | 
10 | 0.2 ± 0.02 |  | 0.072 | Nc1ccccc1C(=O)C[C@H](N)C(=O)O [L-kynurenine] |  | 
11 | 5.82 ± 1.13 |  | 2.13 | CC(=O)NCCc1c[nH]c2ccc(O)cc12 [N-acetylserotonin] |  | 
